Consider 19 molecules from patent US20240076297A1, “ADENOSINE A2A AND A2B RECEPTOR DUAL ANTAGONISTS FOR IMMUNO-ONCOLOGY” (Merck Sharp & Dohme LLC, priority 2020, published 2024).

Chain of human A2A adenosine receptor (P29274 whole entry): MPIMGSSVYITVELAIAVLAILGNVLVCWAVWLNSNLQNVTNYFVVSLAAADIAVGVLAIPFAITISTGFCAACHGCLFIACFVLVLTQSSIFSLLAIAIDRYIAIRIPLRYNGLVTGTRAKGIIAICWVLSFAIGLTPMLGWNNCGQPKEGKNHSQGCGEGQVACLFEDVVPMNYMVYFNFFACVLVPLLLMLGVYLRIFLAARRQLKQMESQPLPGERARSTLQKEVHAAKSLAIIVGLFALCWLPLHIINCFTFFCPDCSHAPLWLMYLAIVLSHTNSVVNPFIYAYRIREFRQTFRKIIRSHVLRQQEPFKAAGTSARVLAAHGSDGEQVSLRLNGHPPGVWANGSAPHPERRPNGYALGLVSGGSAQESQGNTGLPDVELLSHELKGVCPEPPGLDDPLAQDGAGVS

This assay deals with human A2A adenosine receptor (Homo sapiens (Human), UniProt P29274). Nature of the assay: A2A binding affinity using radioligand binding, Method (A). The conditions noted are these: Method (A): filtration radioligand binding, [3H] SCH58261, membranes expressing human A2A. An excerpt:
Method (A) describes the procedure used to measure A2A binding affinity using radioligand binding. Method (B) describes the procedure used to measure A2A binding affinity using SPA technology. The method used to measure A2B binding affinity is also described below. The method used to determine the A2A IC50 value reported for each compound in the table is indicated next to the reported value. The A2B IC50 value measured using the A2B binding affinity assay is shown in the table next to the compound under the corresponding A2A value.
The A2A receptor affinity binding assay measured the amount of binding of a tritiated ligand with high affinity for the A2A adenosine receptor to membranes made from HEK293 or CHO cells recombinantly expressing the human A2A adenosine receptor, in the presence of varying concentrations of a compound of the invention. The data were generated using either filtration binding or a homogenous scintillation proximity assay (SPA).
Method (A): Measurement of A2A Binding Affinity Using Radioligand Binding
148 μL (5 μg/mL) membranes (Perkin Elmer, Cat. No. RBHA2aM400UA) and 2 μL compounds of the invention to be tested (test compound) were transferred to individual wells of a 96-well polypropylene assay plate and incubated for 15 to 30 min at room temperature. [^3H] SCH58261 ((7-(2-phenylethyl)-5-amino-2-(2-furyl)-pyrazolo-[4,3-e]-1,2,4-triazolo[1,5-c]pyrimidine)) was diluted in assay buffer (50 mM Tris pH 7.4, 10 mM MgCl2, 0.005% Tween20) to a concentration of 4 nM and 50 μL transferred to each well of the assay plate. To define total and non-specific binding, wells containing 1% DMSO and 1 μM ZM241385 (Tocris Bioscience, Cat. No. 1036) respectively, were also included. The assay plate was incubated at room temperature for 60 min with agitation. Using a FilterMate Harvester® (Perkin Elmer), the contents of the assay plate were filtered through a UniFilter-96® PEI coated plate (Perkin Elmer Cat. No. 6005274 or 6005277). Filtering was achieved by aspirating the contents of the assay plate for 5 sec, then washing and aspirating the contents three times with ice-cooled wash buffer (50 mM Tris-HCl pH 7.4, 150 mM NaCl) and allowing the vacuum manifold to dry the plate for 30 sec. The filter plate was incubated for at least 1 h at 55° C. and allowed to dry. The bottom of the filter plate was sealed with backing tape. 40 μL Ultima Gold™ (Perkin Elmer, Cat. No. 6013329) was added to each well of the filter plate and the top of the plate was sealed with TopSeal-A PLUS® clear plate seal (Perkin Elmer, Cat. No. 6050185). The plate was incubated for at least 20 min, and then the amount of radioactivity remaining in each well was determined using a TopCount® (Perkin Elmer) scintillation counter. After normalization to total and non-specific binding, the percent effect at each compound concentration was calculated. The plot of percent effect versus the log of compound concentration was analyzed electronically using a 4-parameter logistic fit based on the Levenberg-Marquardt algorithm to generate IC50 values.
For `COc1cccc2c1nc(N)n1nc(CCC3CCn4c(cnc4C4CC(F)(F)C4)C3)nc21` (single isomer, unassigned) [Example 7.5A, (S or R)-2-(2-(3-(3,3-difluorocyclobutyl)-5,6,7,8-tetrahydroimidazo-[1,5-a]pyridin-7-yl)ethyl)-7-methoxy-[1,2,4]triazolo[1,5-c]-quinazolin-5-amine], the IC50 came to 2.2 nM.
Molecule `COc1cccc2c1nc(N)n1nc(CC3CC3c3ccc(C(C)(C)O)cc3)nc21` (single isomer, unassigned) [Example 8.6B, 2-(4-((1R,2S or 1S,2S)-2-((5-amino-7-methoxy-[1,2,4]triazolo-[1,5-c]quinazolin-2-yl)methyl)cyclopropyl)phenyl)propan-2-ol] displayed an IC50 of 0.3 nM.
`COc1cc(F)cc2c1nc(N)n1nc(CCC3CCn4c(cnc4C4(C(F)(F)F)CC4)C3)nc21` (single isomer, unassigned) [Example 12.3B, (R or S)-9-fluoro-7-methoxy-2-(2-(3-(1-(trifluoromethyl)cyclopropyl)-5,6,7,8-tetrahydroimidazo[1,5-a]pyridin-7-yl)ethyl)-[1,2,4]triazolo[1,5-c]quinazolin-5-amine] returned an IC50 of 6.7 nM.
`CS(=O)(=O)CCCc1nc2c3cc(F)cc(F)c3nc(N)n2n1` [Example 13.19, 7,9-difluoro-2-(3-(methylsulfonyl)propyl)-[1,2,4]triazolo[1,5-c]quinazolin-5-amine] had an IC50 of 21.8 nM.
Take `CC(C)(N)c1ccc([C@H]2C[C@@H]2Cc2nc3c4cc(F)cc(F)c4nc(N)n3n2)cc1` [Example 8.3B, 2-(((1R,2S)-2-(4-(2-aminopropan-2-yl)phenyl)cyclopropyl)methyl)-7,9-difluoro-[1,2,4]triazolo[1,5-c]quinazolin-5-amine]: the half-inhibitory concentration (IC50) is 25.4 nM.
For `COc1ccc(C2=COCCC2)c2c1nc(N)n1nc(CO)nc21` [Example 15.4, (5-amino-10-(3,4-dihydro-2H-pyran-5-yl)-7-methoxy-[1,2,4]triazolo[1,5-c]quinazolin-2-yl)methanol], the IC50 was 2.7 nM.
On to `COc1cc(F)cc2c1nc(N)n1nc(CCC3(O)CCc4c(nnn4C4CC(F)(F)C4)C3)nc21` (single isomer, unassigned) [Example 14.3A, (S or R)-5-(2-(5-amino-9-fluoro-7-methoxy-[1,2,4]triazolo[1,5-c]quinazolin-2-yl)ethyl)-1-(3,3-difluorocyclobutyl)-4,5,6,7-tetrahydro-1H-benzo[d][1,2,3]triazol-5-ol], for which the IC50 stood at 1.1 nM.
On to `COc1cc(F)cc2c1nc(N)n1nc(CCC3CCc4nn(C(C)C)cc4C3)nc21` (single isomer, unassigned) [Example 5.4B, (R or S)-9-fluoro-2-(2-(2-isopropyl-4,5,6,7-tetrahydro-2H-indazol-5-yl)ethyl)-7-methoxy-[1,2,4]triazolo[1,5-c]quinazolin-5-amine], for which the concentration for half-maximal inhibition (IC50) stood at 5.5 nM.
`CCOC(=O)CCCn1cc(Cc2nc3c4cc(F)cc(OC)c4nc(N)n3n2)cn1` [Example 16.3, ethyl 4-(4-((5-amino-9-fluoro-7-methoxy-[1,2,4]triazolo[1,5-c]quinazolin-2-yl)methyl)-1H-pyrazol-1-yl)butanoate] returned an IC50 of 14.9 nM.
Consider `COc1cc(F)cc2c1nc(N)n1nc(CCC3CCn4c(cnc4C4CC(F)(F)C4)C3)nc21` (single isomer, unassigned) [Example 7.3B, (R or S)-2-(2-(3-(3,3-difluorocyclobutyl)-5,6,7,8-tetrahydroimidazo-[1,5-a]pyridin-7-yl)ethyl)-9-fluoro-7-methoxy-[1,2,4]triazolo[1,5-c]-quinazolin-5-amine], for which the concentration for half-maximal inhibition (IC50) is 4.6 nM.
The figure for `COc1cc(F)cc2c1nc(N)n1nc(CC3CC3c3ccc(C(C)(C)N)cc3)nc21` (single isomer, unassigned) [Example 8.4A, 2-(((1S, 2R or 1R,2S)-2-(4-(2-aminopropan-2-yl)phenyl)-cyclopropyl)methyl)-9-fluoro-7-methoxy-[1,2,4]triazolo-[1,5-c]quinazolin-5-amine] is 10.2 nM.
With `CC(C)(N)c1ccc([C@@H]2C[C@H]2Cc2nc3c4cc(F)cc(F)c4nc(N)n3n2)cc1` [Example 8.3A, 2-(((1S,2R)-2-(4-(2-aminopropan-2-yl)phenyl)cyclopropyl)methyl)-7,9-difluoro-[1,2,4]triazolo[1,5-c]quinazolin-5-amine], the IC50 came out at 38.1 nM.
`COc1cccc2c1nc(N)n1nc(CC3CC3c3ccc(C(C)(C)N)cc3)nc21` (single isomer, unassigned) [Example 8.5A, 2-(((1S,2R or 1R,2S)-2-(4-(2-aminopropan-2-yl)phenyl)-cyclopropyl)methyl)-7-methoxy-[1,2,4]triazolo-[1,5-c]quinazolin-5-amine] came in with an IC50 of 4.7 nM.
As for `COc1cccc2c1nc(N)n1nc(CCC3CCc4c(cnn4C(C)C)C3)nc21` (single isomer, unassigned) [Example 7.8A, (S or R)-2-(2-(1-isopropyl-4,5,6,7-tetrahydro-1H-indazol-5-yl)-ethyl)-7-methoxy-[1,2,4]triazolo[1,5-c]quinazolin-5-amine], the IC50 worked out at 2.1 nM.
The molecule `COc1cccc2c1nc(N)n1nc(CC(C)(CO)CO)nc21` [Example 3.2, 2-((5-amino-7-methoxy-[1,2,4]triazolo[1,5-c]quinazolin-2-yl)methyl)-2-methylpropane-1,3-diol] gave an IC50 of 10.9 nM.
`CN=S(=O)(CCc1nc2c3cccc(OC)c3nc(N)n2n1)C1CC1` (single isomer, unassigned) [Example 10.3B, (R or S)-(2-(5-amino-7-methoxy-[1,2,4]triazolo[1,5-c]quinazolin-2-yl)ethyl)(cyclopropyl)(methylimino)-λ^6-sulfanone] had an IC50 of 3.7 nM.
The result for `COc1cc(F)cc2c1nc(N)n1nc(CCC3CCc4c(cnn4C(C)C)C3)nc21` (single isomer, unassigned) [Example 7.7A, (S or R)-9-fluoro-2-(2-(1-isopropyl-4,5,6,7-tetrahydro-1H-indazol-5-yl)ethyl)-7-methoxy-[1,2,4]triazolo[1,5-c]quinazolin-5-amine] reads 5.5 nM; that for `COc1cccc2c1nc(N)n1nc(CCC3CCc4nn(C(C)C)cc4C3)nc21` (single isomer, unassigned) [Example 7.2A, (S or R)-2-(2-(2-isopropyl-4,5,6,7-tetrahydro-2H-indazol-5-yl)ethyl)-7-methoxy-[1,2,4]triazolo[1,5-c]quinazolin-5-amine], 2.5 nM.
The figure for `COc1cccc2c1nc(N)n1nc(CCOc3ccc(C(O)(C(F)(F)F)C(F)(F)F)cc3)nc21` [Example 9.1, 2-(4-(2-(5-amino-7-methoxy-[1,2,4]triazolo[1,5-c]quinazolin-2-yl)ethoxy)phenyl)-1,1,1,3,3,3-hexafluoropropan-2-ol] is 1.7 nM.
